Results from ChEMBL document CHEMBL5230122, “Natural products and other inhibitors of F1FO ATP synthase” (Eur J Med Chem, 2020).
Values after ≈ are worked out from the molar mass of the structure shown. Square brackets hold non-standard residues; d marks the D form. Peptide text beside a SMILES is read from it. * marks the point of attachment. X4 = CC(C)C[C@@H](C[N+]1=C2CCCN2CCC1)N*; Pip = O=C(O)[C@@H]1CCCCN1; Iva = CC[C@](C)(N)C(=O)O; Aib = CC(C)(N)C(=O)O; βAla = NCCC(=O)O

How the values were obtained:
PANC-1 = assay: Anticancer activity against human PANC-1 cells assessed as reduction in cell viability by measuring ATP level incubated for 24 hrs by CellTiter-Glo assay; format: functional, cell-based; conditions: PANC-1, 24 h
P388 [1] = assay: Anticancer activity against mouse P388 cells assessed as reduction in cell viability incubated for 48 hrs by sulforhodamine B (SRB) assay; format: functional, cell-based; conditions: P388, 48 h
P388 [2] = assay: Anticancer activity against mouse P388 cells assessed as reduction in cell viability incubated for 96 hrs by MTT assay; format: functional, cell-based; conditions: P388, 96 h
MCF7 [3] = assay: Anticancer activity against human MCF7 cells assessed as reduction in cell viability incubated for 48 hrs by sulforhodamine B (SRB) assay; format: functional, cell-based; conditions: MCF7, 48 h
PaTu 8988t = assay: Anticancer activity against human PaTu 8988t cells assessed as reduction in cell viability incubated for 72 hrs by MTT assay; format: functional, cell-based
A549 [4] = assay: Anticancer activity against human A549 cells assessed as reduction in cell viability incubated for 72 hrs by MTT assay; format: functional, cell-based; conditions: A549, 72 h
HeLa = assay: Anticancer activity against human HeLa cells assessed as reduction in cell viability incubated for 72 hrs by MTT assay; format: functional, cell-based
MCF7 [5] = assay: Anticancer activity against human MCF7 cells assessed as reduction in cell viability incubated for 72 hrs by MTT assay; format: functional, cell-based; conditions: MCF7, 72 h
MDA-MB-231 = assay: Anticancer activity against human MDA-MB-231 cells assessed as reduction in cell viability incubated for 72 hrs by MTT assay; format: functional, cell-based; conditions: MDA-MB-231, 72 h
Huh-7 = assay: Antitumor activity against human Huh-7 cells assessed as reduction in cell viability incubated for 48 hrs by MTT assay; format: functional, cell-based; conditions: Huh-7, 48 h
[6] = Antitumor activity against mouse RIL-175 cells assessed as reduction in cell viability incubated for 48 hrs by MTT assay; format: functional, cell-based; conditions: RIL-175, 48 h
HCT-116 = assay: Antitumor activity against human HCT-116 cells assessed as reduction in cell viability incubated for 48 hrs by MTT assay; format: functional, cell-based; conditions: HCT-116, 48 h
A549 [7] = assay: Antitumor activity against human A549 cells assessed as reduction in cell viability incubated for 48 hrs by MTT assay; format: functional, cell-based; conditions: A549, 48 h
MCF7 [8] = assay: Antitumor activity against human MCF7 cells assessed as reduction in cell viability incubated for 48 hrs by MTT assay; format: functional, cell-based; conditions: MCF7, 48 h
Jurkat [9] = assay: Cytotoxicity against human Jurkat cells assessed as reduction in cell viability incubated for 72 hrs by WST-8 assay; format: functional, cell-based
SK-OV-3 [10] = assay: Cytotoxicity against human SK-OV-3 cells assessed as reduction in cell viability incubated for 72 hrs by WST-8 assay; format: functional, cell-based; conditions: SK-OV-3, 72 h
[11] = Cytotoxicity against human ACC-MESO-1 cells assessed as reduction in cell viability incubated for 72 hrs by WST-8 assay; format: functional, cell-based; conditions: ACC-MESO-1, 72 h
U-937 = assay: Antiproliferative activity against human U-937 cells assessed as decrease in cellular ATP content and measured after 2 days by CellTiter-Glo luminescent assay; format: functional, cell-based; conditions: U-937, 48 h
SK-OV-3 [12] = assay: Antiproliferative activity against human SK-OV-3 cells assessed as decrease in cellular ATP content and measured after 2 days by CellTiter-Glo luminescent assay; format: functional, cell-based; conditions: SK-OV-3, 48 h
KB-V1 = assay: Antiproliferative activity against human KB-V1 cells assessed as decrease in cellular ATP content and measured after 2 days by CellTiter-Glo luminescent assay; format: functional, cell-based; conditions: KB-V1, 48 h
A549 [13] = assay: Antiproliferative activity against human A549 cells assessed as decrease in cellular ATP content and measured after 2 days by CellTiter-Glo luminescent assay; format: functional, cell-based; conditions: A549, 48 h
KB 3-1 = assay: Antiproliferative activity against human KB-3-1 cells assessed as decrease in cellular ATP content and measured after 2 days by CellTiter-Glo luminescent assay; format: functional, cell-based; conditions: KB 3-1, 48 h
[14] = Cytotoxicity against mouse L929 cells assessed as reduction in cell viability; format: toxicity, cell-based
[15] = Inhibition of yeast mitochondrial F0F1-ATPase incubated for 15 mins by colorimetric assay; format: mitochondria, Saccharomyces cerevisiae, Mitochondria
[16] = Inhibition of bovine heart mitochondrial F0F1-ATP synthase incubated for 15 mins by colorimetric assay; format: mitochondria, Bos taurus, Mitochondria
K562 = assay: Antiproliferative activity against human K562 cells assessed as decrease in cellular ATP content and measured after 2 days by CellTiter-Glo luminescent assay; format: functional, cell-based; conditions: K562, 48 h
A498 = assay: Antiproliferative activity against human A498 cells assessed as decrease in cellular ATP content and measured after 2 days by CellTiter-Glo luminescent assay; format: functional, cell-based; conditions: A498, 48 h
[17] = Anticancer activity against rat E1A-3Y1-2 cells assessed as reduction in cell viability incubated for 3 days by MTT assay; format: functional, cell-based; conditions: E1A-3Y1-2, 72 h
SK-OV-3 [18] = assay: Anticancer activity against human SK-OV-3 cells assessed as reduction in cell viability incubated for 72 hrs by WST-8 assay; format: functional, cell-based; conditions: SK-OV-3, 72 h
[19] = Anticancer activity against rat SR-3Y1-1 cells assessed as reduction in cell viability incubated for 3 days by MTT assay; format: functional, cell-based; conditions: SR-3Y1-1, 72 h
[20] = Anticancer activity against rat Ad12-3Y1-Z11 cells assessed as reduction in cell viability incubated for 3 days by MTT assay; format: functional, cell-based; conditions: Ad12-3Y1-Z11, 72 h
[21] = Anticancer activity against rat Ad12-3Y1-W5 cells assessed as reduction in cell viability incubated for 3 days by MTT assay; format: functional, cell-based; conditions: Ad12-3Y1-W5, 72 h
[22] = Anticancer activity against rat HR-3Y1-1 cells assessed as reduction in cell viability incubated for 3 days by MTT assay; format: functional, cell-based; conditions: HR-3Y1-1, 72 h
[23] = Anticancer activity against human ACC-MESO-1 cells assessed as reduction in cell viability incubated for 72 hrs by WST-8 assay; format: functional, cell-based; conditions: ACC-MESO-1, 72 h
[24] = Anticancer activity against rat E1A-3Y1-3 cells assessed as reduction in cell viability incubated for 3 days by MTT assay; format: functional, cell-based; conditions: E1A-3Y1-3, 72 h
[25] = Anticancer activity against rat SR-3Y1-2 cells assessed as reduction in cell viability incubated for 3 days by MTT assay; format: functional, cell-based; conditions: SR-3Y1-2, 72 h
[26] = Anticancer activity against rat SV-3Y1-C66 cells assessed as reduction in cell viability incubated for 3 days by MTT assay; format: functional, cell-based; conditions: SV-3Y1-C66, 72 h
[27] = Anticancer activity against rat SR-3Y1-3 cells assessed as reduction in cell viability incubated for 3 days by MTT assay; format: functional, cell-based; conditions: SR-3Y1-3, 72 h
[28] = Anticancer activity against rat HR-3Y1-3 cells assessed as reduction in cell viability incubated for 3 days by MTT assay; format: functional, cell-based; conditions: HR-3Y1-3, 72 h
[29] = Anticancer activity against rat HR-3Y1-2 cells assessed as reduction in cell viability incubated for 3 days by MTT assay; format: functional, cell-based; conditions: HR-3Y1-2, 72 h
Jurkat [30] = assay: Anticancer activity against human Jurkat cells assessed as reduction in cell viability incubated for 72 hrs by WST-8 assay; format: functional, cell-based
[31] = Anticancer activity against rat Ad12-3Y1-Z19 cells assessed as reduction in cell viability incubated for 3 days by MTT assay; format: functional, cell-based; conditions: Ad12-3Y1-Z19, 72 h
[32] = Anticancer activity against rat E1A-3Y1-1 cells assessed as reduction in cell viability incubated for 3 days by MTT assay; format: functional, cell-based; conditions: E1A-3Y1-1, 72 h
[33] = Anticancer activity against rat Ad12-3Y1-Z13 cells assessed as reduction in cell viability incubated for 3 days by MTT assay; format: functional, cell-based; conditions: Ad12-3Y1-Z13, 72 h

## CC[C@](C)(NC(=O)[C@H](CC(C)C)NC(=O)[C@H](C)NC(=O)C(C)(C)NC(=O)[C@@H]1CCCCN1C(=O)C(C)(C)NC(=O)C(C)(C)NC(=O)CNC(=O)CCNC(=O)[C@H](CC(C)C)NC(=O)C(C)(C)NC(=O)C(C)(C)NC(=O)[C@@H]1CCCCN1C(=O)C(C)(C)NC(=O)[C@@H]1CCCCN1C(C)=O)C(=O)N[C@@H](CC(C)C)C[N+]1=C2CCCN2CCC1 (Ac-[Pip][Aib][Pip][Aib][Aib]L[βAla]G[Aib][Aib][Pip][Aib]AL[Iva]-X4)
PANC-1
  IC50: 0.052 µM

## CC/C(C)=C(\NC(=O)[C@@H](NC(=O)CC(=O)[C@@H](C)CC(C)C)[C@](C)(O)CC)C(=O)N[C@@H](C)C(=O)N/C(C(=O)N[C@@H](C(=O)N[C@@H](C(=O)N[C@@H](C(=O)N[C@H](C(=O)N/C(C(=O)N[C@H](C)C(=O)N[C@@H](C(=O)N[C@H](C(=O)NC(C(=O)N[C@H](CN(C)C)C(C)C)=C(C)C)C(C)C)C(C)C)=C(\C)CC)C(C)(C)O)C(C)(C)O)[C@@H](C)CC)C(C)C)=C(\C)CC
P388 [1]
  IC50: 0.01 µM
P388 [2]
  IC50: 0.00051 µM
MCF7 [3]
  IC50: 0.01 µM

## CCC(C)[C@H](NC(=S)[C@@H](NC(=O)C(C)O)C(C)C)C(=O)NCC(=O)N[C@@H](Cc1ccccc1O)C(=S)N[C@@H](C)C(=S)N[C@H](C(=O)N[C@H]1C(=O)N[C@@H]([C@@H](C)CC)C(=O)N[C@@H](C)C(=O)N[C@@H](C(C)C)C(=O)N[C@@H](Cc2cn(C)c[n+]2C)C(=O)N/C=C\SC1C)C(C)C (some centres undefined)
PaTu 8988t
  IC50: 0.065 µM
A549 [4]
  IC50: 0.048 µM
HeLa
  IC50: 0.05 µM
MCF7 [5]
  IC50: 0.059 µM
MDA-MB-231
  IC50: 0.072 µM

## CSCC[C@H](NC(=S)[C@@H](NC(=O)C(C)=O)C(C)C)C(=S)N[C@@H](C)C(=O)N[C@@H](C)C(=S)N[C@@H](C)C(=S)N[C@@H](C)C(=O)N[C@H]1C(=O)N[C@@H](C(C)C)C(=O)N[C@@H](C)C(=O)N[C@@H](Cc2ccccc2)C(=O)N[C@@H](C(O)c2cn(C)c[n+]2C)C(=O)N/C=C\SC1C (some centres undefined)
Huh-7
  IC50: 0.141 µM
[6]
  IC50: 0.157 µM
HCT-116
  IC50: 0.176 µM
A549 [7]
  IC50: 1.16 µM
MCF7 [8]
  IC50: 0.48 µM

## CC[C@H](C)[C@@H]1NC(=O)[C@H](NC(=O)[C@H](C)NC(=S)[C@H](C)NC(=S)[C@H](C)NC(=S)[C@H](C)NC(=S)[C@H](CCSC)NC(=S)[C@@H](NC(=O)C(C)O)C(C)C)CS/C=C\NC(=O)[C@H]([C@@H](O)c2cn(C)c[n+]2C)NC(=O)[C@H](CC(C)C)NC(=O)[C@H](C)NC1=O (some centres undefined)
Jurkat [9]
  IC50: 5.4 µM
SK-OV-3 [10]
  IC50: 10.8 µM
[11]
  IC50: 14.3 µM

## CCC[C@H](O)[C@@H](C)C(=O)NC/C=C\C[C@@H](C)[C@@H](O)[C@H](C)[C@@H]1C/C=C\C[C@H](C)[C@H](O)Cc2cc(OC)cc(O)c2C(=O)O1
U-937
  IC50: 0.1 ng/mL (≈ 0.17 nM)
SK-OV-3 [12]
  IC50: 1 ng/mL (≈ 1.7 nM)
KB-V1
  IC50: 0.6 ng/mL (≈ 1.02 nM)
A549 [13]
  IC50: 0.4 ng/mL (≈ 0.678 nM)
KB 3-1
  IC50: 0.3 ng/mL (≈ 0.509 nM)
[14]
  IC50: 1.2 ng/mL (≈ 2.03 nM)
[15]
  IC50: 0.015 µM
[16]
  IC50: 0.015 µM
K562
  IC50: 0.6 ng/mL (≈ 1.02 nM)
A498
  IC50: 0.4 ng/mL (≈ 0.678 nM)

## CC[C@H](C)[C@@H]1NC(=O)[C@H](NC(=O)[C@H](C)NC(=S)[C@H](C)NC(=S)[C@H](C)NC(=S)[C@H](C)NC(=S)[C@H](CCSC)NC(=S)[C@@H](NC(=O)C(C)(O)CC(C)=O)C(C)C)CS/C=C\NC(=O)[C@H](C(O)c2cn(C)c[n+]2C)NC(=O)[C@H](CC(C)C)NC(=O)[C@H](C)NC1=O (some centres undefined)
[17]
  IC50: 32 ng/mL
SK-OV-3 [18]
  IC50: 38 µM
[19]
  IC50: 630 ng/mL
[20]
  IC50: 3.9 ng/mL
[21]
  IC50: 3.9 ng/mL
[22]
  IC50: 200 ng/mL
[23]
  IC50: 27.8 µM
[24]
  IC50: 32 ng/mL
[25]
  IC50: 630 ng/mL
[26]
  IC50: 460 ng/mL
[27]
  IC50: 630 ng/mL
[28]
  IC50: 200 ng/mL
[29]
  IC50: 200 ng/mL
Jurkat [30]
  IC50: 12.5 µM
[31]
  IC50: 3.9 ng/mL
[32]
  IC50: 32 ng/mL
[33]
  IC50: 3.9 ng/mL
